Data from ChEMBL document CHEMBL2073923, “Reversal of anticancer drug resistance by macrolide antibiotics in vitro and in vivo” (Clin Exp Pharmacol Physiol, 2000).
Values belong to the compound of their own block, whether it stands above or below them.

Experiments:
Assay type in all cases: functional, cell-based
[1] = molecular target: T1, ATP-dependent translocase ABCB1 (Mus musculus, UniProt P21447); assay: TP_TRANSPORTER: inhibition of Cyclosporin A efflux (CsA: 0.005 uM, YM17K: 100 uM) in P388/S and P388/ADR cells
[2] = molecular target: T1, ATP-dependent translocase ABCB1; assay: TP_TRANSPORTER: inhibition of Vinblastine efflux (Vinblastine: 0.002 uM, YM17K: 100 uM) in P388/S and P388/ADR cells
[3] = molecular target: T1, ATP-dependent translocase ABCB1; assay: TP_TRANSPORTER: inhibition of Vinblastine efflux (Vinblastine: 0.002 uM, Clarithromycin: 100 uM) in P388/S and P388/ADR cells
[4] = molecular target: T1, ATP-dependent translocase ABCB1; assay: TP_TRANSPORTER: inhibition of Cyclosporin A efflux (CsA: 0.005 uM, Clarithromycin: 100 uM) in P388/S and P388/ADR cells
[5] = molecular target: T1, ATP-dependent translocase ABCB1; assay: TP_TRANSPORTER: inhibition of Cyclosporin A efflux (CsA: 0.005 uM, Josamycin: 100 uM) in P388/S and P388/ADR cells
[6] = molecular target: T1, ATP-dependent translocase ABCB1; assay: TP_TRANSPORTER: inhibition of Vinblastine efflux (Vinblastine: 0.002 uM, Josamycin: 100 uM) in P388/S and P388/ADR cells
[7] = molecular target: T1, ATP-dependent translocase ABCB1; assay: TP_TRANSPORTER: inhibition of Vinblastine efflux (Vinblastine: 0.002 uM, FK-506: 10 uM) in P388/S and P388/ADR cells
[8] = molecular target: T1, ATP-dependent translocase ABCB1; assay: TP_TRANSPORTER: intracellular accumulation in P388/S and P388/ADR cells

T1 sequence (P21447 whole entry): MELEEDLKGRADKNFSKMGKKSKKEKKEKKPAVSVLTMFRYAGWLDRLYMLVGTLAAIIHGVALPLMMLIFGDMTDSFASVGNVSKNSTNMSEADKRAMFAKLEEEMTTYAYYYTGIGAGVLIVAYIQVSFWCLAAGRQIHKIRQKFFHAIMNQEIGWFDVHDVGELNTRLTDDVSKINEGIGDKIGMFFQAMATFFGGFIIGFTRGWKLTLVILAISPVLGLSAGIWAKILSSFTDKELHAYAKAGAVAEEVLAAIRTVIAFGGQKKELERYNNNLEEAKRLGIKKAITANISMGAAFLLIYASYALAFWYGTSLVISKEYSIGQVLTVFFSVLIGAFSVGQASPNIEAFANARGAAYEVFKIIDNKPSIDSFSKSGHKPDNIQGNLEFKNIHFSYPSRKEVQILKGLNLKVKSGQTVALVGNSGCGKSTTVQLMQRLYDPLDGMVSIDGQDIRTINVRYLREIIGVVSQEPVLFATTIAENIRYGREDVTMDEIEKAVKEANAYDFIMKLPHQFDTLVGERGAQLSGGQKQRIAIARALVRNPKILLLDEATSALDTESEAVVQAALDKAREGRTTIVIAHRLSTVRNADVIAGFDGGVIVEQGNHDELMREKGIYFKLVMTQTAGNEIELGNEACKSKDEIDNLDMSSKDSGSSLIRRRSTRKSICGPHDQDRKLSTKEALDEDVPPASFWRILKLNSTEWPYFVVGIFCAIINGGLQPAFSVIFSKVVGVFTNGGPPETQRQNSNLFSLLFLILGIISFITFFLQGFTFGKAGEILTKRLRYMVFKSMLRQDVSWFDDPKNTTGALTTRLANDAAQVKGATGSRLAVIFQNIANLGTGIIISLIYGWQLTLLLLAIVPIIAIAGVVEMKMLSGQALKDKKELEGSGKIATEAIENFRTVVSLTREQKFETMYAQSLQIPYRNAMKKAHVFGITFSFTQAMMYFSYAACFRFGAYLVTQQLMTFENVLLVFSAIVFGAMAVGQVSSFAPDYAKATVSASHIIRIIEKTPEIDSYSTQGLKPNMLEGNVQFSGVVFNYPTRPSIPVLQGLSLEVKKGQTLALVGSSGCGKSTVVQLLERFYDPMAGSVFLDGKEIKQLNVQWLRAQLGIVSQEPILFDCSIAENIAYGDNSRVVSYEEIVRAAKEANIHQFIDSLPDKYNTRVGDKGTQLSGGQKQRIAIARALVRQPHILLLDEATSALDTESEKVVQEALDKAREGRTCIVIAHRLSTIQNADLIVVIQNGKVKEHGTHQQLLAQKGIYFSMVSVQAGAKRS

Structure (SMILES): CC[C@H]1OC(=O)CC[C@H](C)C(O[C@@H]2O[C@H](C)C[C@H](N(C)C)[C@H]2O)[C@@H](CC=O)C[C@@H](C)C(=O)/C=C/C(C)=C/[C@@H]1CO (stereo partly drawn)
Activity [1]: inhibitor [(at a rough estimate) 710 % of control]
Activity [2]: inhibitor [(at a rough estimate) 200 % of control]

Structure (SMILES): CC[C@H]1OC(=O)[C@H](C)[C@@H](O[C@H]2C[C@@](C)(OC)[C@@H](O)[C@H](C)O2)[C@H](C)[C@@H](O[C@@H]2O[C@H](C)C[C@H](N(C)C)[C@H]2O)[C@](C)(OC)C[C@@H](C)C(=O)[C@H](C)[C@@H](O)[C@]1(C)O [CLARITHROMYCIN]
Activity [3]: inhibitor [(at a rough estimate) 250 % of control]
Activity [4]: inhibitor [(at a rough estimate) 820 % of control]

Structure (SMILES): CO[C@@H]1[C@@H](O[C@@H]2O[C@H](C)[C@@H](O[C@H]3C[C@@](C)(O)[C@@H](OC(=O)CC(C)C)[C@H](C)O3)[C@H](N(C)C)[C@H]2O)[C@@H](CC=O)C[C@@H](C)[C@@H](O)/C=C/C=C/C[C@@H](C)OC(=O)C[C@H]1OC(C)=O [JOSAMYCIN]
Activity [5]: inhibitor [(at a rough estimate) 710 % of control]
Activity [6]: inhibitor [(at a rough estimate) 180 % of control]

Structure (SMILES): C=CC[C@@H]1/C=C(\C)C[C@H](C)C[C@H](OC)[C@H]2O[C@@](O)(C(=O)C(=O)N3CCCC[C@H]3C(=O)O[C@H](/C(C)=C/[C@@H]3CC[C@@H](O)[C@H](OC)C3)[C@H](C)[C@@H](O)CC1=O)[C@H](C)C[C@@H]2OC [TACROLIMUS ANHYDROUS]
Activity [7]: inhibitor [(at a rough estimate) 230 % of control]

Activity [8]: substrate [+]
Structure (SMILES): CC[C@]1(O)C[C@@H]2CN(CCc3c([nH]c4ccccc34)[C@@](C(=O)OC)(c3cc4c(cc3OC)N(C)[C@H]3[C@@](O)(C(=O)OC)[C@H](OC(C)=O)[C@]5(CC)C=CCN6CC[C@]43[C@@H]65)C2)C1 [VINBLASTINE]
